Literature values as cited in patent publication US20040024036A1, “Pharmaceutical composition for transdermal delivery of befloxatone” (priority 2000, published 2004).

Experiments:
[1] = system: noradrenalin (NA) reuptake
MAO-B = biological target: T1, MAO-B (Homo sapiens, UniProt P27338); conditions: MAO-A versus MAO-B
T1 sequence (P27338 1-520): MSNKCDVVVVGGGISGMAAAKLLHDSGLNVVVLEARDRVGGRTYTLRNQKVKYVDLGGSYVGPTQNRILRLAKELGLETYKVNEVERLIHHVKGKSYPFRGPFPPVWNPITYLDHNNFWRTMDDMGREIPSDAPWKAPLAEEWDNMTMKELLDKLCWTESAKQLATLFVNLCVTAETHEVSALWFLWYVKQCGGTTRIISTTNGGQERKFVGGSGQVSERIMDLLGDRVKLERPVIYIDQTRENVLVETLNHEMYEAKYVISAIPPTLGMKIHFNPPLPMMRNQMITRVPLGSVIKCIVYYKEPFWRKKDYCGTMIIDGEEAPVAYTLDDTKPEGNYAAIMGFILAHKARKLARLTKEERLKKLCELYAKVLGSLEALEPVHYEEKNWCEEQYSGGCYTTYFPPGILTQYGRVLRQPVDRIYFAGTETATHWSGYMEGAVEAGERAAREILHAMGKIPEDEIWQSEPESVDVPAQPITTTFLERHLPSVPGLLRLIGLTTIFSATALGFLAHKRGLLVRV

[2] = system: serotonin (5-HT) reuptake
MAO-A = biological target: T2, MAO-A (Homo sapiens, UniProt P21397); conditions: reversible inhibitor
T2 sequence (P21397 1-527): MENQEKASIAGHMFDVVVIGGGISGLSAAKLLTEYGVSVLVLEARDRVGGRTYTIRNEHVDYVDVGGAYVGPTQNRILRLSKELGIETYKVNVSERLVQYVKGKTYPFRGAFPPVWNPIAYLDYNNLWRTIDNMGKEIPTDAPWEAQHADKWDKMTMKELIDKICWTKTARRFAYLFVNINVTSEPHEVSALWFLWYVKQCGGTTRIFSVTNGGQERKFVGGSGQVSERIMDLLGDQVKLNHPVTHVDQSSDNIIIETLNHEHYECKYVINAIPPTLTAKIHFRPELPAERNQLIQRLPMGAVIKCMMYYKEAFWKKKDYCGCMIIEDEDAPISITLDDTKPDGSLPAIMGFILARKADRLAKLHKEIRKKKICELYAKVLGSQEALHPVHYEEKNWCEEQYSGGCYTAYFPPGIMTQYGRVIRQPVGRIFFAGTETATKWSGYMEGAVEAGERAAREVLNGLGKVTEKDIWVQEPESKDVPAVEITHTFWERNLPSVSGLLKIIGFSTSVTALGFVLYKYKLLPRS

- selectivity toward the B isoform (MAO-B) (MAO-B): very good selectivity
- affinity for the A isoform (MAO-A) (MAO-A): very high affinity
Compound: COC[C@H]1CN(c2ccc(OCC[C@@H](O)C(F)(F)F)cc2)C(=O)O1 [befloxatone]
- effect on noradrenalin (NA) reuptake [1]: does not affect
- effect on serotonin (5-HT) reuptake [2]: does not affect
- effect on dopamine (DA) reuptake (dopamine (DA) reuptake): does not affect
